From paper PMC3520070 (Journal of medicinal chemistry, 2011) come the findings set out here.

Data set [1] deals with cIAP1, procaspase-8 and PARP in MDA-MB-231 xenograft tissues. Nature of the data set: In vivo pharmacodynamics in MDA-MB-231 xenograft tissues. On the set-up: species or system SCID mice.
Data set [2] has as its system MDA-MB-231 xenograft tumors. The data set is described as follows: In vivo antitumor efficacy, MDA-MB-231 xenograft model.
The nature of the next data set: Metabolic stability. It is filed as in vitro ADME. The following applies: IND-enabling studies, data not shown.
The target in data set [3] is T1, XIAP BIR3 protein (Homo sapiens, UniProt P98170). Nature of the data set: Cell-free functional assay against XIAP BIR3. It counts as biochemical. The note with it: 1 μM compound, 500 nM XIAP BIR3, MDA-MB-231 cell lysates.
The next data set in a line: Pharmacokinetics in dogs. It is filed as in vivo. The following applies: beagle, dog, po, 10 mg/kg.
Data set [4] can be described thus: Pharmacokinetics in plasma of SCID mice bearing MDA-MB-231 tumors. The note with it: mouse, in vivo.
A further data set addresses cIAP1 (Homo sapiens, UniProt Q13490). The data set is described as follows: cIAP1 degradation in MDA-MB-231 cells. It is filed as cell-based.
Data set [5] can be described thus: Pharmacokinetics in non-human primates. It counts as in vivo, cynomolgus monkeys. The note with it: cynomolgus monkey, plasma, po, 5 mg/kg.
A further data set can be described thus: Tolerability in dogs. It is filed as in vivo. The note with it: IND-enabling studies, data not shown.
In another data set the test system is MDA-MB-231 cancer cells. Nature of the data set: Trypan blue cell death assay, MDA-MB-231. It counts as cell-based, human. The note with it: 1 μM for 24 hours.
Data set [6] is described as follows: Pharmacokinetics in MDA-MB-231 tumor tissues of SCID mice. The following applies: for Cmax: SCID, mouse, in vivo. It is filed as in vivo.
The subject of data set [7] is caspase-3 and PARP in MDA-MB-231 cancer cells. The data set is described as follows: Western blot of caspase-3 activation and PARP cleavage, MDA-MB-231. It counts as cell-based, human. The note with it: 1.5 μM, in as little as 12 hr. For orientation: A western blot detects proteins with antibodies after separation by electrophoresis.
For data set [8], the system named is more than 100 human cancer cell lines. Nature of the data set: Screening against more than 100 human cancer cell lines. It counts as cell-based.
Data set [9] deals with Primary human normal prostate epithelial cells. Nature of the data set: Trypan blue cell death assay, primary prostate epithelial cells. It counts as cell-based. The following applies: concentrations as high as 10 μM, 48 hours.
Data set [10] is described as follows: Toxicity evaluation in mice. It counts as in vivo. The following applies: 200 mg/kg, daily for 5 days a week for 2–3 weeks via oral gavage.
Data set [11] concerns normal-like human breast epithelial MCF-12F cells. Nature of the data set: Trypan blue cell death assay, MCF-12F. It is filed as cell-based. The note with it: concentrations as high as 10 μM, 48 hours.
The target of data set [12] is T1, XIAP BIR3 protein. The data set is described as follows: Competitive fluorescence-polarization binding assay, XIAP BIR3. The note with it: XIAP BIR3, cIAP1 BIR3 and cIAP2 BIR3.
The mark [13] stands for this setting: 7.5 mg/kg intravenously, 24-h time-point.

Usually AUC stands for concentration integrated over time. What is called Cmax is the maximum level reached in the sampled fluid or tissue.

Entries after “also recorded” stand apart in the source; their conditions may differ.

T1 sequence (P98170 241-356): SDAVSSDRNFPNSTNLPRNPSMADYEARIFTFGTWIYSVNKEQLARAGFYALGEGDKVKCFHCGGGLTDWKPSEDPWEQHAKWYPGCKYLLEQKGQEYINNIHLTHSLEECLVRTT
Sequence of cIAP1 (Q13490 whole entry): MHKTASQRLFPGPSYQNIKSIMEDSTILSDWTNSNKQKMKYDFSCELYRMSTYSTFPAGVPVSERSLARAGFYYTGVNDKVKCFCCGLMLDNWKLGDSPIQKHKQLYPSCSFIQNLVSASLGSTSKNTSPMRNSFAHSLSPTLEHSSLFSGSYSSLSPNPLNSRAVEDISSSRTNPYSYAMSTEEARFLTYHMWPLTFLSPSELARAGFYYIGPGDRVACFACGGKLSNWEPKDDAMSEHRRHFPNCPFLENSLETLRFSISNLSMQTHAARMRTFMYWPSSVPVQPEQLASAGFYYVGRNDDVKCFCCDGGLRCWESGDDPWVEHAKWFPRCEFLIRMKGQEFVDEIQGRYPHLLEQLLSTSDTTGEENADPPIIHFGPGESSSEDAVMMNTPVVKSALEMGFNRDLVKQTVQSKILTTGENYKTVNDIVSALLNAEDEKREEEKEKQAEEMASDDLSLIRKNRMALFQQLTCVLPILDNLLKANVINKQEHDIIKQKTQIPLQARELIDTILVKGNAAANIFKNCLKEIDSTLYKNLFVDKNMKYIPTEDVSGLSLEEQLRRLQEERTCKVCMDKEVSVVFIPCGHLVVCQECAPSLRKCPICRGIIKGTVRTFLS

Regarding `CC(=O)O[C@@]12CO[C@@H]1C[C@H](O)[C@@]1(C)C(=O)[C@H](O)C3=C(C)[C@@H](OC(=O)[C@H](O)[C@@H](NC(=O)OC(C)(C)C)c4ccccc4)C[C@@](O)([C@@H](OC(=O)c4ccccc4)[C@H]21)C3(C)C.O.O.O` [TXT, reference compound], in data set [1] (setting [13]), the “PARP cleavage in tumor tissues” value was “minimal effect”, the “cIAP1 degradation in tumor tissues” value is “minimal effect” and the “processing of procaspase-8 in tumor tissues” value is on record as “induces the processing of procaspase-8”. For the same compound, in [2] (7.5 mg/kg intravenously, once a week for 2 weeks), the antitumor activity result is “strong antitumor activity”.
In the case of `CN[C@@H](C)C(=O)N[C@H]1CN(C(=O)CC(C)C)CC[C@H]2CC[C@@H](C(=O)NC(c3ccccc3)c3ccccc3)N2C1=O` [compound 2, (5S,8S,10aR)-N-benzhydryl-5-((S)-2-(methylamino)propanamido)-3-(3-methylbutanoyl)-6-oxodeca-hydropyrrolo[1,2-a][1,5]diazocine-8-carboxamide], the metabolic stability entry in the data set “Metabolic stability” is recorded as “good metabolic stability”. Further, on XIAP BIR3 protein [3], the “antagonism of XIAP BIR3 and restoration of caspase-9 activity” value is “completely antagonizes XIAP and restores the activity of caspase-9”. In addition, the “processing of procaspase-8 in tumor tissues” value in [1] (single oral dose 100 mg/kg, 2-hr and 6-hr time-points) is listed as “effectively induces processing of procaspase-8”. In addition, the “PARP cleavage in tumor tissues” value in data set [1] (single oral dose 100 mg/kg, at 2 hr, maximum at 6 hr, still evident after 16 hr) was “cleavage of the apoptosis marker, PARP”. Besides, the “cIAP1 degradation in tumor tissues” value in data set [1] (single oral dose 100 mg/kg, at the 2-hr time-point, persists for 16 hr) was “effectively induced cIAP1 degradation”. This compound also gave an AUC in the data set “Pharmacokinetics in dogs” (in vivo) of 198 µg·h/mL. In addition, the Cmax is 17 µM in the data set “Pharmacokinetics in dogs” (plasma); 5 µM in data set [4] (iv, 10 mg/kg); 1.5 µM in data set [4] (po, 10 mg/kg); 2 µM in [4] (po, 30 mg/kg); 9.9 µM in data set [4] (po, 100 mg/kg); around 4 µM in [5]. Further, the Cmax worked out at 6 µM in [6] (iv, 10 mg/kg); 0.5 µM in [6] (po, 10 mg/kg); 3.9 µM in data set [6] (po, 30 mg/kg); 18.2 µM in data set [6] (po, 100 mg/kg). Moreover, the cIAP1 degradation entry at cIAP1 (100 nM for 15 min) is given as “complete degradation”. In addition, the “induction of cIAP1 degradation” value on cIAP1 (at concentrations as low as 10 nM) is “effectively induces cIAP1 degradation”. In “Tolerability in dogs”, the tolerability in dogs entry is “well tolerated”. The “cells that underwent cell death” value in the data set on MDA-MB-231 cancer cells is given as “More than 50%”. For the same compound, in [2] (10 mg/kg oral gavage daily, 5 days a week for 2 weeks), the antitumor activity result was “no significant antitumor activity”. In addition, in [2] (oral dosing, MDA-MB-231 xenograft model in mice), the toxicity to animals result is listed as “minimal toxicity; also recorded: no signs of toxicity”. Moreover, the tumor tissue penetration entry in [6] (SCID mice bearing MDA-MB-231 tumors) is recorded as “excellent tumor tissue penetration”. In addition, the “activation of caspase-3 and cleavage of PARP” value in data set [7] is “robust activation of caspase-3 and cleavage of PARP”. Also, the “share of cell lines in which cell growth is effectively inhibited” value in data set [8] was “approximately 15%”. In addition, in data set [9], the “toxicity (cell death) against normal cells” value is “minimal toxicity”. Also, in data set [10], the tolerability entry was “well tolerated”. Also, the “toxicity (cell death) against normal-like cells” value in data set [11] was “minimal toxicity”. For the same compound, the “times higher affinities than the Smac AVPI peptide” value on XIAP BIR3 protein [12] is 50–100 times.
